Source: PMC11513854, “De novo GTP synthesis is a metabolic vulnerability for the interception of brain metastases” (Cell Reports Medicine, 2024)

Assays:
MDR1 = assay: Bi-directional permeability via MDR1-MDCKII cells; format: in vitro ADME; details: dog, MDCK-MDR1, pH 7.4; 2 μM (digoxin 10 μM), 2.5 h
Experimental: (§1) MDR1-MDCKII permeability assays were performed by Wuxi AppTec Co. Briefly, MDR1-MDCK1 cells were seeded onto polycarbonate membranes in 96-well insert system plates and allowed to develop into monolayers. […] The plate was incubated for 2.5 h (37°C, 5% CO2) and the media was sampled on either side and the compound present was quantified by LC-MS/MS and the concentrations were used to calculate the efflux ratio. Digoxin (10 μM), nadolol (2 μM), and metoprolol (2 μM) were used as controls.

MDR1-MDCKII cells = assay: Bi-directional permeability via MDR1-MDCKII cells; format: in vitro ADME
Experimental: as §1

[1] = Brain homogenate binding, equilibrium dialysis; format: in vitro ADME, mouse; details: 2 μM, 4 h, 37°C
Experimental: The samples were applied to a dialysis well plate and sealed with dialysis membrane. Dialysis buffer (100 mM sodium phosphate pH 7.4, 150 mM NaCl) was applied to opposite side of the membrane (receiver well of the plate), and samples were incubated at 37°C with 5% CO2 for 4 h. Following completion of incubation period, samples were recovered from each side of the dialysis membrane and processed by protein precipitation, and analysis by LC-MS/MS for compound concentration. A corresponding set of samples was also prepared and stop solution (acetonitrile containing 200 ng/mL tolbutamide and 200 ng/mL labetalol) was immediately added, and samples were obtained from each side of the dialysis plate for mass spectrometric analysis.

IMPDH KO BT478 cells = assay: Dose-response assays using AAVS1 and IMPDH KO cells; format: cell-based, human; details: IMPDH1 and IMPDH2 knocked out
Source text: In parallel, we knocked out the safe-harbor locus, AAVS1, as a control cell line. Knockouts were validated by western blot (Figures 5E and S4D). Loss of IMPDH led to tumor cell death within 1 week of knockout (Figure 5F).
Guide RNAs (gRNAs) targeting AAVS1 (5′-[…]-3′) and IMPDH1 (5′- […]-3′) and IMPDH2 (5′-a[…]-3′) were obtained from TKOv3[76] and cloned into a single-gRNA lentiCRISPRv2 construct (Addgene 52961). Sequences were verified using Sanger sequencing. Each plasmid was packaged independently into lentivirus using second-generation packaging constructs as described previously.[77] BMICs were infected with lentivirus containing single-gRNA lentiCRISPRv2 constructs targeting AAVS1 or IMPDH1 or IMPDH2 (three gRNAs). Twenty-four hours post-infection, virus-containing media was replaced with fresh media containing puromycin (1–2 μg/mL) (ThermoFisher, Cat#A1113803) for 48–72 h. The knockout efficiency was validated by Western Blotting for evaluation of IMPDH protein expression.

[2] = tested on: de novo GTP synthesis pathway; assay: LC-MS metabolomics profiling; format: cell-based, human; details: IC80, 6 h; for GDP and GTP levels: BT478, BT530; for AICAR levels: b56: accumulates in only some conditions
Experimental: Metabolites were extracted with a solution of cold acetonitrile/methanol/water (2:2:1) from the cell pellets and protein precipitation was performed by three cycles of freeze/thawing and sonication. The LC-MS metabolomics analysis was performed as previously described.[75] Briefly, a UHPLC-MS system consisting of an Agilent 6550 qToF coupled to an Agilent 1290 binary pump UHPLC system was used. The source parameters were as follows: Gas temperature, 150 °C at 14 L/min and 45 psig; Sheath gas temperature, 325 °C at 12 L/min; Capillary and nozzle voltages were set to −2.0 kV iFunnel conditions were changed from default to-30 V DC, High pressure funnel drop −100 V and RF voltage of 110 V, low pressure funnel drop −50 V and RF voltage of 60 V. Chromatographic separation was achieved by ion-paired chromatography. In brief, […] of each sample was injected onto Agilent ZORBAX Extend-C18 (150 mm 3 2.1 mm i.d.; 1.8 mm) column using tributylamine (TBA) as an ion paring agent (solvent A: 3% methanol, 97% water 10 mM TBA, 15 mM Acetic acid, solvent B: 100% methanol). The linear gradient employed was as follows: 0–2.5 min 99% A, 2.5–7.5 min decrease to 80% A, 7.5–13 min to 55% B and finally 13–15 min to 99% B and held for 1 min. The column was re-generated for 2 min at 1% B. The flow rate was set to […]. The column temperature was maintained at 25°C. Skyline was used for data processing of metabolites in our library of standards using known retention times and MS/MS spectra. Integrated peak areas for the metabolites was exported for further statistical and metabolite enrichment analysis by using online MetaboAnalyst (https://www.metaboanalyst.ca/).

[3] = tested on: BT478 and BT530 tumor cells; assay: Dose-response with exogenous guanine supplementation; format: cell-based, human; details: guanine 12 μM in culture media
Source text: Created with BioRender.com. […] Comparisons were made via a two-tailed unpaired t test, n = 4 technical replicates, p value is indicated. N.s., not significant, ∗∗∗∗ = p < 0.0001. […] Comparisons were made via a two-tailed unpaired t test, n = 4 technical replicates. N.s., not significant. […] Data are presented as mean ± SD from 4 technical replicates. (E) Immunoblot confirmation of IMPDH (IMPDH1 + IMPDH2) knockout (KO) in patient-derived lung-BMICs. Cropped from single full blot. (F) Time-course proliferation assays of AAVS1 and IMPDH KO BT478 and BT530 cells. Comparisons were made via a two-tailed unpaired t test. Data are presented as mean ± SD from 4 technical replicates, ∗∗∗∗ = p < 0.0001. (G) Representative bar graphs depicting the sphere count per 200 cells of AAVS1 vs. IMPDH KO cells. Comparisons were made via a two-tailed unpaired t test, data are presented as mean ± SD from 4 technical replicates, ∗∗∗∗ = p < 0.0001. (H) Kaplan-Meier curves showing the overall survival probability (from primary cancer diagnosis to death) in a cohort of 30 patients with lung carcinoma who developed BM, for IMPDH2 very high vs. very low expression (1st and 3rd quartiles cutoff values: <114.86 and >210.74). The Cox regression model for survival analysis was used, p values (p) are shown. […]

SMILES	Papp A→B at 2.5 h, 2 μM (MDR1)	Papp B→A at 2.5 h, 2 μM (MDR1)	efflux ratio at 2.5 h, 2 μM (MDR1)	Rank of Papp (MDR1-MDCKII cells)	permeability for entering the brain (MDR1-MDCKII cells; MDCK-MDR1 cell monolayer model)	substrate for P-glycoprotein (ABCB1) (MDR1-MDCKII cells; MDCK-MDR1 cell monolayer model)	% Bound [1]	% Unbound [1]	mass of compound following completion of the brain homogenate assay [1]	anti-BMIC activity following IMPDH knockout (IMPDH KO BT478 cells)	GDP and GTP levels [2]	levels of dihydroorotic acid [2]	AICAR levels [2]	BMIC viability with exogenous guanine supplementation [3]
COc1c(C)c2c(c(O)c1C/C=C(\C)CCC(=O)OCCN1CCCC1)C(=O)OC2 [Compound 3]	14.8 ×10⁻⁶ cm/s	12.5 ×10⁻⁶ cm/s	0.848	High	high permeability	not significant substrates	Not Recover ed	Not Recover ed	could not be detected	lose their anti-BMIC activity	significantly reduced	did not influence	accumulate	rescued BMIC viability
COc1c(C)c2c(c(O)c1C/C=C(\C)CCC(=O)O)C(=O)OC2 [MPA, Mycophenolic acid]	26 ×10⁻⁶ cm/s	10 ×10⁻⁶ cm/s				not significant substrates		34.1%		lose their anti-BMIC activity	significantly reduced	did not influence	accumulate	rescued BMIC viability
